The first experiment addresses T1, human H4 receptor (Homo sapiens, UniProt Q9H3N8).
T1 construct: expressed in transfected cells
Kind of experiment: Binding Assay on Recombinant Human Histamine H4 Receptor. Particulars: Table 1; [3H] histamine competition binding, membranes of SK-N-MC cells transfected with human H4 receptor; average of results. As for the experimental part: Binding Assay on Recombinant Human Histamine H4 Receptor.
Cell pellets from SK-N-MC cells stably or transiently transfected with human H4 receptor were used for the binding assays. Cell pellets were homogenized in 50 mM Tris/5 mM EDTA buffer and supernatants from an 800g spin were collected and recentrifuged at 30,000g for 30 min. Pellets were rehomogenized in 50 mM Tris/5 mM EDTA buffer. […] Compounds were tested in free base, hydrochloride salt, or trifluoroacetic acid form. Nonspecific binding was defined with 100 μM cold histamine. […] Membranes were harvested by rapid filtration using the 96 well Brandel system or a cell harvester using a Whatman GF/C filter or filter plates treated with 0.5% polyethylenimine (PEI), and washed 4 times with ice-cold 50 mM Tris/5 mM EDTA buffer. Filters were then dried, mixed with scintillant and radioactive counts were determined. […] Data marked with an asterisk (*) were obtained by the cell harvester method. Where activity is shown as greater than (>) a particular value, the value is the highest concentration tested.
T1 sequence (Q9H3N8 whole entry): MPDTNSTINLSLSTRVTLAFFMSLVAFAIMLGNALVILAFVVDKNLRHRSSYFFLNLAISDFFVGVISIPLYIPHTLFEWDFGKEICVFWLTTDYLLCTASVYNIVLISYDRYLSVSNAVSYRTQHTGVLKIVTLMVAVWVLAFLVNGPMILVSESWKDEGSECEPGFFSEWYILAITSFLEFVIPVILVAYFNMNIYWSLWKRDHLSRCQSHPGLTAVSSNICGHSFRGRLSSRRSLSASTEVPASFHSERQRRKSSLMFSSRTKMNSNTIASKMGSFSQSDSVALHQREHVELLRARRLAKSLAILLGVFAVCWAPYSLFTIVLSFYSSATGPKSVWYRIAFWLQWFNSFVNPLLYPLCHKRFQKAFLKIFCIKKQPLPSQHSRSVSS
Turning to `CN[C@@H]1CCN(c2cc(C3CCOCC3)nc(N)n2)C1` [Example 60, (R)-4-(3-Methylamino-pyrrolidin-1-yl)-6-(tetrahydro-pyran-4-yl)-pyrimidin-2-ylamine], the Ki was determined as 31 nM.
On the same count and under the same terms, to `Cc1nc(N)nc(N2C[C@H]3CN(C)C[C@H]3C2)c1C` [Example 30, 4,5-Dimethyl-6-(cis-5-methyl-hexahydro-pyrrolo[3,4-c]pyrrol-2-yl)-pyrimidin-2-ylamine] belongs 530 nM; to `Nc1nc(C2CC2)cc(N2CC3CCCNC3C2)n1` (stereo not drawn) [Example 42, 4-Cyclopropyl-6-(cis-octahydro-pyrrolo[3,4-b]pyridin-6-yl)-pyrimidin-2-ylamine], 18 nM.
Consider `Nc1nc(C2CCCCC2)cc(N2C[C@H]3CCCN[C@H]3C2)n1` [Example 55, (R,R)-4-Cyclohexyl-6-(octahydro-pyrrolo[3,4-b]pyridin-6-yl)-pyrimidin-2-ylamine], for which the Ki stood at 1 nM.
Still for that read-out and setting: under `CCc1cc(N2C[C@H]3CNC[C@H]3C2)nc(N)n1` [Example 38, 4-Ethyl-6-(cis-hexahydro-pyrrolo[3,4-c]pyrrol-2-yl)-pyrimidin-2-ylamine] stands 559 nM; under `Nc1nc2c(c(N3CC[C@@H](N)C3)n1)CCCC2` [Example 68, (R)-4-(3-Amino-pyrrolidin-1-yl)-5,6,7,8-tetrahydro-quinazolin-2-ylamine], 115 nM; under `Cc1nc(N)nc(N2CC[C@@H](N)C2)c1C` [Example 27, (R)-4-(3-Amino-pyrrolidin-1-yl)-5,6-dimethyl-pyrimidin-2-ylamine], over 10000 nM.
Turning to `CN1CCN(c2nc(N)nc3c2CCCC3)CC1` [Example 66, 4-(4-Methyl-piperazin-1-yl)-5,6,7,8-tetrahydro-quinazolin-2-ylamine], the Ki was 4 nM.
The same measure, in the same setting: to “4-(4-piperazin-1-yl)-5,6,7,8-tetrahydro-quinazolin-2-ylamine [Example 67]” belongs 17 nM; to `CN[C@@H]1CCN(c2nc(N)nc(C)c2C)C1` [Example 28, (R)-4,5-Dimethyl-6-(3-methylamino-pyrrolidin-1-yl)-pyrimidin-2-ylamine], 357 nM; to `Nc1nc2c(c(N3C[C@H]4CCN[C@H]4C3)n1)CCCC2` [Example 70, (R,R)-4-(Hexahydro-pyrrolo[3,4-b]pyrrol-5-yl)-5,6,7,8-tetrahydro-quinazolin-2-ylamine], 404 nM.

Staying with this experiment, now noted: Table 2, data marked with an asterisk (*): obtained by the cell harvester method; [3H] histamine competition binding, SK-N-MC membranes.
Turning to `CCCCc1nc(N)nc(N2CC[C@@H](NC)C2)c1OC` [Example 106, (R)-4-Butyl-5-methoxy-6-(3-methylamino-pyrrolidin-1-yl)-pyrimidin-2-ylamine], the Ki stood at 39 nM.
For the molecule `CC(C)(C)c1cc(N2CC(N)C2)nc(N)n1` [Example 133, 4-(3-Amino-azetidin-1-yl)-6-tert-butyl-pyrimidin-2-ylamine], the inhibition constant Ki was 238 nM.

The same experiment, now with this note: Table 2; [3H] histamine competition binding, membranes of SK-N-MC cells transfected with human H4 receptor; average of results.
Turning to `CN[C@@H]1CCN(c2nc(N)nc(C)c2F)C1` [Example 202, (R)-5-Fluoro-4-methyl-6-(3-methylamino-pyrrolidin-1-yl)-pyrimidin-2-ylamine], the Ki came out at 515 nM.
Still for that read-out and setting: to `CCCCc1cc(N2C[C@H]3CN(C)C[C@H]3C2)nc(N)n1` [Example 139, 4-Butyl-6-(cis-5-methyl-hexahydro-pyrrolo[3,4-c]pyrrol-2-yl)-pyrimidin-2-ylamine] belongs 138 nM.
Same read-out and setting: to `COCc1cc(N2CC[C@H](N)C2)nc(N)n1` [Example 118, (S)-4-(3-Amino-pyrrolidin-1-yl)-6-methoxymethyl-pyrimidin-2-ylamine] belongs 242 nM; to `CC(C)Cc1cc(N2CC[C@@H](N)C2)nc(N)n1` [Example 149, (R)-4-(3-Amino-pyrrolidin-1-yl)-6-isobutyl-pyrimidin-2-ylamine], 3 nM.
Still for that read-out and setting: to `Nc1nc(C2CC2)cc(N2CCNCC2)n1` [Example 121, 4-Cyclopropyl-6-piperazin-1-yl-pyrimidin-2-ylamine] belongs 3 nM; to `CCCCc1nc(N)nc(N2CC[C@H](N)C2)c1OC` [Example 105, (S)-4-(3-Amino-pyrrolidin-1-yl)-6-butyl-5-methoxy-pyrimidin-2-ylamine], 103 nM.
Take `COCc1cc(NCCN)nc(N)n1` [Example 219, N^4-(2-Amino-ethyl)-6-methoxymethyl-pyrimidine-2,4-diamine]: the inhibition constant (Ki) amounted to 890 nM.
Same read-out and setting: under `CN1CCN(c2cc(Cc3ccsc3)nc(N)n2)CC1` [Example 207, 4-(4-Methyl-piperazin-1-yl)-6-thiophen-3-ylmethyl-pyrimidin-2-ylamine] stands 2 nM; under `CN(CCN)c1cc(Cc2ccc(Cl)cc2)nc(N)n1` [Example 238, N^4-(2-Amino-ethyl)-6-(4-chloro-benzyl)-N^4-methyl-pyrimidine-2,4-diamine], 1770 nM; under `CC1(c2cc(N3C[C@H]4CNC[C@H]4C3)nc(N)n2)CCOCC1` [Example 170, 4-(cis-Hexahydro-pyrrolo[3,4-c]pyrrol-2-yl)-6-(4-methyl-tetrahydro-pyran-4-yl)-pyrimidin-2-ylamine], 5890 nM.
Same read-out and setting: under `Nc1nc(C2CCOCC2)cc(N2CC[C@@H](N)C2)n1` [Example 175, (R)-4-(3-Amino-pyrrolidin-1-yl)-6-(tetrahydro-pyran-4-yl)-pyrimidin-2-ylamine] stands 85 nM.
Same read-out and setting: under `CN[C@@H]1CCN(c2cc(CC(C)C)nc(N)n2)C1` [Example 148, (R)-4-Isobutyl-6-(3-methylamino-pyrrolidin-1-yl)-pyrimidin-2-ylamine] stands 1 nM; under `Nc1nc(C2CCCC2)cc(N2CC3NCCOC3C2)n1` (single isomer, unassigned) [Example 86, 4-Cyclopentyl-6-(trans-hexahydro-pyrrolo[3,4-b][1,4]oxazin-6-yl)-pyrimidin-2-ylamine], 56 nM; under `CCOCc1cc(N2CCNCC2)nc(N)n1` [Example 240, 4-Ethoxymethyl-6-piperazin-1-yl-pyrimidin-2-ylamine], 25 nM.
`CCCCc1cc(N2CCN(C)CC2)nc(N)n1` [Example 136, 4-Butyl-6-(4-methyl-piperazin-1-yl)-pyrimidin-2-ylamine]: the inhibitory constant (Ki) stood at 1 nM.
Same read-out and setting: under `Nc1nc2c(c(N3C[C@H]4CCCN[C@H]4C3)n1)COCC2` [Example 97, (R,R)-4-(Octahydro-pyrrolo[3,4-b]pyridin-6-yl)-7,8-dihydro-5H-pyrano[4,3-d]pyrimidin-2-ylamine] stands 20 nM; under `CC(C)c1cc(N2CC3NCCOC3C2)nc(N)n1` (single isomer, unassigned) [Example 93, 4-(cis-Hexahydro-pyrrolo[3,4-b][1,4]oxazin-6-yl)-6-isopropyl-pyrimidin-2-ylamine], 481 nM.
Consider `CN[C@@H]1CCN(c2cc(CCc3ccccc3)nc(N)n2)C1` [Example 180, (R)-4-(3-Methylamino-pyrrolidin-1-yl)-6-phenethyl-pyrimidin-2-ylamine], for which the inhibitory constant (Ki) amounted to 8 nM.
Still for that read-out and setting: to `CN[C@@H]1CCN(c2cc(COC)nc(N)n2)C1` [Example 221, (R)-4-Methoxymethyl-6-(3-methylamino-pyrrolidin-1-yl)-pyrimidin-2-ylamine] belongs 43 nM; to `CN1C[C@@H]2CN(c3cc(C4CC4)nc(N)n3)C[C@@H]2C1` [Example 120, 4-Cyclopropyl-6-(cis-5-methyl-hexahydro-pyrrolo[3,4-c]pyrrol-2-yl)-pyrimidin-2-ylamine], 113 nM.
Still for that read-out and setting: under `Nc1nc2c(c(N3CC[C@@H](N)C3)n1)COCC2` [Example 98, (R)-4-(3-Amino-pyrrolidin-1-yl)-7,8-dihydro-5H-pyrano[4,3-d]pyrimidin-2-ylamine] stands 298 nM; under `COCc1cc(N2CCCC(N)C2)nc(N)n1` (stereo in doubt) [Example 225, (R)-4-(3-Amino-piperidin-1-yl)-6-methoxymethyl-pyrimidin-2-ylamine], 464 nM; under `CN[C@@H]1CCN(c2cc(C3CCOC3)nc(N)n2)C1` (stereo partly drawn) [Example 191, (R)-4-(3-Methylamino-pyrrolidin-1-yl)-6-(tetrahydro-furan-3-yl)-pyrimidin-2-ylamine], 12 nM.
On the same count and under the same terms, to `CN[C@@H]1CCN(c2cc(C3CC3c3ccccc3)nc(N)n2)C1` (stereo in doubt) [Example 160, (R)-4-(3-Methylamino-pyrrolidin-1-yl)-6-(trans-2-phenyl-cyclopropyl)-pyrimidin-2-ylamine] belongs 3 nM; to `Nc1nc(C2CCOCC2)cc(N2CC[C@@H](N)C2)n1` [Example 249, (R)-4-(3-Amino-pyrrolidin-1-yl)-6-(tetrahydro-pyran-4-yl)-pyrimidin-2-ylamine], 87 nM.
As for `NCCNc1cc(C2Cc3ccccc3C2)nc(N)n1` [Example 168, N^4-(2-Amino-ethyl)-6-indan-2-yl-pyrimidine-2,4-diamine], the Ki is 46 nM.
`Nc1nc(C2CCOC2)cc(N2CCCNCC2)n1` (stereo not drawn) [Example 192, 4-[1,4]-Diazepan-1-yl-6-(tetrahydro-furan-3-yl)-pyrimidin-2-ylamine]: the Ki worked out at 17 nM.
On the same count and under the same terms, to `CC(C)c1cc(NCCN)nc(N)n1` [Example 89, (2-Amino-ethyl)-6-isopropyl-pyrimidine-2,4-diamine] belongs 19 nM.
On the same count and under the same terms, under `CCc1cc(N2CC[C@H](NC)C2)nc(N)n1` [Example 150, (S)-4-Ethyl-6-(3-methylamino-pyrrolidin-1-yl)-pyrimidin-2-ylamine] stands 85 nM.

Source of the values: patent US8716475B2, “2-aminopyrimidine modulators of the histamine H4 receptor” (Janssen Pharmaceutica NV, priority 2007, dated 2014).
